Counter-ions that a name gives are not always drawn.
Tests used:
[1] = target: T1, human RORγt ligand binding domain (RORγt LBD) (Homo sapiens, UniProt P51449); assay: RORγt ThermoFluor assay (thermal shift, ligand binding affinity); details: estimated from concentration response of thermal shift
T1 construct: His-tag (N); TurboTEV protease cleavage site (ENLYFQG) (N); made in house; host or cells: E. coli (pHIS1, modified pET vector)
T1 sequence (P51449 with tags, fused parts or gaps): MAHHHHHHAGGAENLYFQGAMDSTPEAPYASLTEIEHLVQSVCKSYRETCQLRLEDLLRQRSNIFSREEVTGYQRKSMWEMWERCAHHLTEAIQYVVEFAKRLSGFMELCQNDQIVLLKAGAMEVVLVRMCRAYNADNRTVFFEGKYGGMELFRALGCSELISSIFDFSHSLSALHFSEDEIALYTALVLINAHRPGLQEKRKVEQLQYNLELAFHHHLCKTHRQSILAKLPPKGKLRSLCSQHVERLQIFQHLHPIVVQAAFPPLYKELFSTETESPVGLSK
How it was run: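 Thermal shift of 0.065 mg/mL RORγt with 60 μM 1,8-ANS in 100 mM Hepes pH 7.0, 10 mM NaCl, 2.5 mM GSH, 0.002% Tween-20. Compounds in 1:2 series from 10 mM DMSO stock. Dye fluorescence (500 nm emission) tracked versus temperature; ΔTm used to derive KD.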

human RORγt LBD = target: T2, human RORγt LBD (Homo sapiens, UniProt P51449); assay: RORγt reporter assay (GAL4-RORγt LBD luciferase in HEK293T cells); format: cell-based
T2 construct: expressed in transfected cells
T2 sequence (P51449 258-518): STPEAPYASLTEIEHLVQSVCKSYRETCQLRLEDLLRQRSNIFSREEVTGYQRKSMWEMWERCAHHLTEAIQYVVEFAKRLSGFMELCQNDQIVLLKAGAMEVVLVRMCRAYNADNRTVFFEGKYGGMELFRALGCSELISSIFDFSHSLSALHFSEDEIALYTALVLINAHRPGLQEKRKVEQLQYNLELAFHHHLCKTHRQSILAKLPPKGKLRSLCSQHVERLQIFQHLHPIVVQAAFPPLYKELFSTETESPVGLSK
How it was run: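 HEK293T cells transiently co-transfected with pBIND (GAL4 DBD fused to wild-type human RORγt LBD, plus SV40-driven renilla luciferase) and pGL4.31 GAL4-responsive firefly luciferase reporter. Plated in phenol-red-free DMEM with 5% lipid-reduced FCS and treated with compound for 24 h. Firefly/renilla luminescence ratio plotted against compound concentration.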

[2] = tested on: IL-17 production by CD4 T cells; assay: Human Th17 assay (IL-17 production by CD4 T cells under Th17 differentiation conditions); format: cell-based; details: Homo sapiens, CD4+ T, 72 h, IL-17 in supernatant after 3 days
How it was run: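 Primary CD4+ T cells from healthy-donor PBMC, preincubated 1 h with titrated compound (0.2% DMSO), then activated with anti-CD3/CD28 beads plus anti-IL4, anti-IFNγ, IL1β, IL23, IL6, TGFβ and IL2.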

- Kd [1]: 310 nM
- IC50 (human RORγt LBD; HEK293T cells, 24 hours compound treatment): 82 nM
- inhibition at 6 µM (human RORγt LBD; HEK-293T, read-out: RORγt reporter Assay, % inhibition @ 6 μM, HEK293T cells, 6 μM compound): 94%
- IC50 [2]: 690 nM
SMILES: Cc1ccc(C(O)(c2cccc(F)c2)c2ccc3nc(Cl)c(-c4ccccc4)c(Cl)c3c2)cn1 (stereo not shown) [Example 71, (2,4-Dichloro-3-phenylquinolin-6-yl)(3-fluorophenyl)(6-methylpyridin-3-yl)methanol•TFA]

Source: US9309222B2, “Phenyl linked quinolinyl modulators of RORγt” (Janssen Pharmaceutica NV, priority 2012, dated 2016)
